In US11673860B2, “Crystalline siponimod fumaric acid and polymorphs thereof” (TEVA PHARMACEUTICALS INTERNATIONAL GMBH, priority 2018, dated 2023):

Assay: Stability of the solid state form under stress conditions (high temperature and relative humidity)
Assay type: physicochemical
Details: stressed conditions, e.g. high temperature and relative humidity; solid to solid phase / polymorph transformation
Source text: Pharmaceutical molecules may display solid to solid phase transformations and transformations between polymorphs; which may detected by exposure of the solid state form to stress conditions of e.g., high temperature and high relative humidity.

| Structure (SMILES) | thermodynamic and chemical stability of the solid state form |
| --- | --- |
| CCc1cc(/C(C)=N/OCc2ccc(C3CCCCC3)c(C(F)(F)F)c2)ccc1CN1CC(C(=O)O)C1.CCc1cc(/C(C)=N/OCc2ccc(C3CCCCC3)c(C(F)(F)F)c2)ccc1CN1CC(C(=O)O)C1.O=C(O)/C=C/C(=O)O [Crystalline Siponimod fumaric acid] | thermodynamically stable and steady under stressed conditions |
| CCc1cc(/C(C)=N/OCc2ccc(C3CCCCC3)c(C(F)(F)F)c2)ccc1CN1CC(C(=O)O)C1.CCc1cc(/C(C)=N/OCc2ccc(C3CCCCC3)c(C(F)(F)F)c2)ccc1CN1CC(C(=O)O)C1.O=C(O)/C=C/C(=O)O [crystalline Form 7 of Siponimod fumaric acid] | thermodynamically and chemical stable |
